From ChEMBL document CHEMBL2029256, “Structure-activity relationships of trimethoxybenzyl piperazine N-type calcium channel inhibitors” (Bioorg Med Chem Lett, 2012) come the findings set out here.

A short description of test [1]: Inhibition of rat N-type calcium channel alpha1B/alpha2delta-1/beta1b expressed in HEK293 cells by whole cell patch clamp analysis. The format is cell-based.
Test [2] has as its target Voltage-gated inwardly rectifying potassium channel KCNH2 (Homo sapiens, UniProt Q12809). As to the kind of experiment: Inhibition of human Erg expressed in HEK293 cells by whole cell patch clamp analysis.
The species entered for test [3] is Rattus norvegicus. The test can be described thus: animal or person. The conditions noted are these: ip, read-out: INH.
Test [4] concerns Rattus norvegicus. As to the kind of experiment: Antiallodynic activity in rat chung model of neuropathic pain assessed as paw withdrawal at 30 mg/kg, po measured at 30 mins interval for 3 hrs relative to control.
The test system of test [5] is Rattus norvegicus. The test can be described thus: Antiallodynic activity in rat chung model of neuropathic pain assessed as inhibition of nerve ligation-induced thermal hyperalgesia at 30 mg/kg, po measured at 30 mins interval for 3 hrs relative to control.
Test [6] can be described thus: Inhibition of rat L-type calcium channel alpha1C/alpha2delta-1/beta1b expressed in HEK293 cells by whole cell patch clamp analysis. The format is cell-based.
The species entered for test [7] is Rattus norvegicus. As to the kind of experiment: animal or person. The conditions noted are these: ip, read-out: INH. The source holds these as a separate data set.
For test [8], the species on record is Rattus norvegicus. As to the kind of experiment: animal or person. The conditions noted are these: ip, read-out: INH. This is another data set of the same source.

Sequence of Voltage-gated inwardly rectifying potassium channel KCNH2 (Q12809 whole entry): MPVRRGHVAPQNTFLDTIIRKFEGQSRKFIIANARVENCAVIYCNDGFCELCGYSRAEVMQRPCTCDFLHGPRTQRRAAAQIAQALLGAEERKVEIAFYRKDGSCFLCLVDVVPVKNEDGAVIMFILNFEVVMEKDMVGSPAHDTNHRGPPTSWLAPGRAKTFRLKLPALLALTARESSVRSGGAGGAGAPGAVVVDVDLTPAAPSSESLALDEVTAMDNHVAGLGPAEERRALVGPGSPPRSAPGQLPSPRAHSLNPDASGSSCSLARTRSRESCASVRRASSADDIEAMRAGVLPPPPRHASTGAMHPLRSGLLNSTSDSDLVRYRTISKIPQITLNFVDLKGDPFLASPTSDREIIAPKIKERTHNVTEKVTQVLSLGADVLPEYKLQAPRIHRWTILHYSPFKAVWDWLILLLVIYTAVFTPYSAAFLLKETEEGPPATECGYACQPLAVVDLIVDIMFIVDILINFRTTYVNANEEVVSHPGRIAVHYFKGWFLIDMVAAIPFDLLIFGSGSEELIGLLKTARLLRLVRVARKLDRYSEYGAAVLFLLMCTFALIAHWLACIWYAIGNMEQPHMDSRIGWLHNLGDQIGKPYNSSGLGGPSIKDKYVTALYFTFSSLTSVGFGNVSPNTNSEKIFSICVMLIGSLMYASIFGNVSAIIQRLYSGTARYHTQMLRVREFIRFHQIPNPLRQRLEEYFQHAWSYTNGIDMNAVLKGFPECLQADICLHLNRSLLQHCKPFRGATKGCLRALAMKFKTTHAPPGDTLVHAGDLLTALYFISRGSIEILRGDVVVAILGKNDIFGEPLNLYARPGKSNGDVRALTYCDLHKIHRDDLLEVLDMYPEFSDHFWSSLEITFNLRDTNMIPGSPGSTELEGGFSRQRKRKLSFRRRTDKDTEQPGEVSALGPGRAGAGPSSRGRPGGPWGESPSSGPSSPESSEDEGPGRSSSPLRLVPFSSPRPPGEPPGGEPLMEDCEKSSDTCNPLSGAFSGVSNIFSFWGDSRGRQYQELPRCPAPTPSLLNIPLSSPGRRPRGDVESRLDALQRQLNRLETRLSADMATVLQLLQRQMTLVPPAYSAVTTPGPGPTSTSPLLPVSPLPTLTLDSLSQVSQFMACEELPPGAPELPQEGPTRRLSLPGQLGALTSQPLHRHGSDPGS

Take `O=C(NCC1CCN(C(=O)CCCCC(c2ccc(F)cc2)c2ccc(F)cc2)C1)c1cc(F)cc(C(F)(F)F)c1` (stereo not drawn): the IC50 in test [1] is 750 nM. With `COc1cc(C(=O)N2CCC(CNC(=O)CCCCC(c3ccc(F)cc3)c3ccc(F)cc3)C2)cc(OC)c1OC` (stereo not drawn), the 50% inhibitory concentration (IC50) was found to be 840 nM in test [1] and 750 nM in test [2].

Take `CC(C)(C)c1cc(C(=O)NC[C@@H]2CCN(C(=O)CCCCC(c3ccc(F)cc3)c3ccc(F)cc3)C2)cc(C(C)(C)C)c1`: in test [1], the IC50 stood at 120 nM. As to `CC(C)(C)c1cc(C(=O)NC[C@H]2CCN(C(=O)CCCCC(c3ccc(F)cc3)c3ccc(F)cc3)C2)cc(C(C)(C)C)c1`, in test [1], the 50% inhibitory concentration (IC50) came to 160 nM. Turning to `COc1c(C(C)(C)C)cc(CN2CCC(CNCCCCCC(c3ccc(F)cc3)c3ccc(F)cc3)C2)cc1C(C)(C)C` (stereo not drawn), the half-inhibitory concentration (IC50) in test [1] is 32 nM.

As to `CC(C)(C)c1cc(C(=O)N2CCN(C(=O)CCCCC(c3ccc(F)cc3)c3ccc(F)cc3)CC2)cc(C(C)(C)C)c1`, in test [1], the IC50 was 300 nM. As to `CC(C)(C)c1cc(CN2CCN(CCCCCC(c3ccc(F)cc3)c3ccc(F)cc3)CC2)cc(C(C)(C)C)c1O`, the half-maximal inhibitory concentration (IC50) was determined as 40 nM in test [1] and 100 nM in test [2]. `CC(C)(C)c1cc(C(=O)N2CCN(CCCCCC(c3ccc(F)cc3)c3ccc(F)cc3)CC2)cc(C(C)(C)C)c1O`: in test [1], the IC50 worked out at 150 nM. For the compound `COc1c(C(C)(C)C)cc(C(=O)N2CCN(C(=O)CCCCC(c3ccc(F)cc3)c3ccc(F)cc3)CC2)cc1C(C)(C)C`, in test [1], the IC50 worked out at 90 nM. Also, the inhibition in vivo at 30 mg/kg in test [3] amounted to 79%. In addition, the Emax at 30 mg/kg in test [4] was 1.9%; in test [5], 54.2%. On to `COc1c(C)cc(C(=O)NCC2CCN(C(=O)CCCCC(c3ccccc3)C3CCN(C)CC3)C2)cc1C` (stereo not drawn), for which, in test [1], the half-inhibitory concentration (IC50) was 100 nM. Regarding `CC(C)(C)c1cc(CNCC2CCN(CCCCCC(c3ccc(F)cc3)c3ccc(F)cc3)C2)cc(C(C)(C)C)c1` (stereo not drawn), the 50% inhibitory concentration (IC50) in test [1] was 30 nM; in test [2], 460 nM. `COc1cc(CNCC2CCN(CCCCCC(c3ccc(F)cc3)c3ccc(F)cc3)C2)cc(OC)c1OC` (stereo not drawn): in test [1], the IC50 stood at 60 nM. As to `COc1c(C(C)(C)C)cc(C(=O)N2CCN(C(=O)CCCCC(c3ccc(F)cc3)c3ccc(F)cc3)C[C@@H]2C)cc1C(C)(C)C`, the 50% inhibitory concentration (IC50) turned out to be 40 nM in test [1] and 144 µM in test [6]. Besides, the inhibition in vivo at 30 mg/kg was found to be 79% in test [3], 61% in test [7] and 50% in test [8]. Further, the values for the Emax at 30 mg/kg in test [4] and in test [5] were 31.7% and 85.8%, respectively.

For `COc1c(C(C)C)cc(C(=O)NCC2CCN(C(=O)CCCCC(c3ccccc3)C3CCN(C)CC3)C2)cc1C(C)C` (stereo not drawn), in test [1], the IC50 was 1900 nM. Same read-out and setting: for `COc1cc(CN2CCN(CCCCCC(c3ccc(F)cc3)c3ccc(F)cc3)CC2)cc(OC)c1O` the value was 400 nM. Still for that read-out and setting: in the case of `COc1c(C(C)(C)C)cc(C(=O)N2CCN(C(=O)CCCCC(c3ccc(F)cc3)c3ccc(F)cc3)[C@@H](C)C2)cc1C(C)(C)C` it was 10 nM; in that of `CC(C)(C)c1cc(C(=O)NCC2CCN(C(=O)CCCCC(c3ccc(F)cc3)c3ccc(F)cc3)C2)cc(C(C)(C)C)c1` (stereo not drawn), 110 nM; in that of `COc1c(C(C)(C)C)cc(C(=O)NC[C@H]2CCN(C(=O)CCCCC(c3ccc(F)cc3)c3ccc(F)cc3)C2)cc1C(C)(C)C`, 150 nM. Still for that read-out and setting: in the case of `COc1c(C(C)(C)C)cc(C(=O)N2CCN(CCCCCC(c3ccc(F)cc3)c3ccc(F)cc3)CC2)cc1C(C)(C)C` it was 110 nM.

In the case of `COc1cc(CN2CCC(CNCCCCCC(c3ccc(F)cc3)c3ccc(F)cc3)C2)cc(OC)c1OC` (stereo not drawn), the IC50 in test [1] came out at 60 nM; in test [2] it was 100 nM. Regarding `O=C(NCC1CCN(CCCCCC(c2ccc(F)cc2)c2ccc(F)cc2)C1)c1cc(C(F)(F)F)cc(C(F)(F)F)c1` (stereo not drawn), the half-inhibitory concentration (IC50) in test [1] was 150 nM. Same read-out and setting: for `CN1CCC(C(CCCCC(=O)N2CCC(CNC(=O)c3cc(Cl)cc(Cl)c3)C2)c2ccccc2)CC1` (stereo not drawn) the value was 880 nM. Same read-out and setting: in the case of `COc1cc(C(=O)N2CCN(C(=O)CCCCC(c3ccc(F)cc3)c3ccc(F)cc3)CC2)cc(OC)c1O` it was 600 nM; in that of `O=C(CCCCC(c1ccc(F)cc1)c1ccc(F)cc1)N1CCN(C(=O)c2cc(C(F)(F)F)cc(C(F)(F)F)c2)CC1`, 510 nM. Still for that read-out and setting: in the case of `COc1c(C(C)(C)C)cc(C(=O)N2CCC(CNC(=O)CCCCC(c3ccc(F)cc3)c3ccc(F)cc3)C2)cc1C(C)(C)C` (stereo not drawn) it was 1900 nM; in that of `COc1c(C(C)(C)C)cc(CN2CCN(CCCCCC(c3ccc(F)cc3)c3ccc(F)cc3)CC2)cc1C(C)(C)C`, 90 nM; in that of `CC(C)(C)c1cc(CN2CCN(C(=O)CCCCC(c3ccc(F)cc3)c3ccc(F)cc3)CC2)cc(C(C)(C)C)c1O`, 180 nM.

Take `COc1cc(C(=O)NCC2CCN(CCCCCC(c3ccc(F)cc3)c3ccc(F)cc3)C2)cc(OC)c1OC` (stereo not drawn): in test [1], the IC50 is 280 nM.

In the case of `O=C(NC[C@H]1CCN(C(=O)CCCCC(c2ccc(F)cc2)c2ccc(F)cc2)C1)c1cc(C(F)(F)F)cc(C(F)(F)F)c1`, the concentration for half-maximal inhibition (IC50) in test [1] was 100 nM.

On to `Fc1ccc(C(CCCCCN2CCN(Cc3cc(C(F)(F)F)cc(C(F)(F)F)c3)CC2)c2ccc(F)cc2)cc1`, for which the IC50 in test [1] was 1100 nM. In the case of `CC(C)(C)c1cc(CN2CCN(CCCCCC(c3ccc(F)cc3)c3ccc(F)cc3)CC2)cc(C(C)(C)C)c1`, in test [1], the half-inhibitory concentration (IC50) came out at 140 nM. On the same count and under the same terms, in the case of `CC(C)(C)c1cc(C(=O)N2CCN(C(=O)CCCCC(c3ccc(F)cc3)c3ccc(F)cc3)CC2)cc(C(C)(C)C)c1O` it was 220 nM.

`COc1cc(CN2CCN(CCCCCC(c3ccc(F)cc3)c3ccc(F)cc3)CC2)cc(OC)c1OC` yielded a half-inhibitory concentration (IC50) in test [2] of 400 nM. Regarding `CC(C)(C)c1cc(CNCC2CCN(CCCCCC(c3ccc(F)cc3)c3ccc(F)cc3)C2)cc(C(C)(C)C)c1O` (stereo not drawn), the IC50 in test [1] amounted to 50 nM. For `CC(C)(C)c1cc(CN2CCC(CNCCCCCC(c3ccc(F)cc3)c3ccc(F)cc3)C2)cc(C(C)(C)C)c1O` (stereo not drawn), the IC50 in test [1] came to 4 nM. Still for that read-out and setting: for `COc1c(C(C)(C)C)cc(C(=O)NCC2CCN(C(=O)CCCCC(c3ccc(F)cc3)c3ccc(F)cc3)C2)cc1C(C)(C)C` (stereo not drawn) the value was 40 nM; for `COc1cc(C(=O)NCC2CCN(C(=O)CCCCC(c3ccccc3)C3CCN(C)CC3)C2)cc(OC)c1OC` (stereo not drawn), 3200 nM.

As for `O=C(NC[C@@H]1CCN(C(=O)CCCCC(c2ccc(F)cc2)c2ccc(F)cc2)C1)c1cc(C(F)(F)F)cc(C(F)(F)F)c1`, the IC50 in test [1] is 90 nM.

Turning to `O=C(NCC1CCN(C(=O)CCCCC(c2ccc(F)cc2)c2ccc(F)cc2)C1)c1cc(C(F)(F)F)cc(C(F)(F)F)c1` (stereo not drawn), in test [1], the half-inhibitory concentration (IC50) was determined as 210 nM. Still for that read-out and setting: for `COc1c(C(C)(C)C)cc(CN2CCN(C(=O)CCCCC(c3ccc(F)cc3)c3ccc(F)cc3)CC2)cc1C(C)(C)C` the value was 100 nM.
